Key:
IB3-1 cells = test: Accumulation of [3H]cAMP in IB3-1 cells; type: cell-based, human; details: for accumulation of cAMP: bronchoepithelial IB3-1 cells
Protocol: IB3-1 cells were plated on 6 well-plates (0.2*10^6 cells/well) in complete growth medium (LHC-8+5% FCS). The following day, the adenine nucleotide pool was metabolically labelled by incubation with [3H]adenine (1 μCi/well) in Dulbecco's Modified Eagle Medium (DMEM) containing adenosine deaminase (1 unit/ml) for 4 h. Cyclc AMP formation was stimulated by 20 μM forskolin or the PGI2-analogue treprostinil (Remodulin®). The assay was performed in triplicates. The formation of [^3H]cAMP was determined by sequential chromatography on Dowex 50WX-4 and neutral alumina columns followed by liquid scintillation counting of the eluate.

[1] = tested on: human GFP-tagged wild type CFTR; test: Whole cell patch clamp, activation of Cl-current in IB3-1 cells transiently expressing GFP-tagged wild type CFTR; type: cell-based
Protocol: The whole cell patch clamp technique was used for current recordings performed at 22±1.5° C. using an Axoclamp 200B patch clamp amplifier (Axon Instruments). Pipettes had resistances between 1 and 2 MΩ when filled with the recording pipette solution (composition: 110 mM CsCl, 5 mM EGTA, 2 mM MgCl2, 1 mM K2.ATP, 10 mM Hepes, pH adjusted to 7.2 with CsOH). Voltage-clamp protocols and data acquisition were performed with pclamp 6.0 software (Axon Instruments). Data were low-pass filtered at 2 kHz (−3 dB) and digitized at 10-20 kHz. Cells were continuously superfused with external solution (composition: 145 mM NaCl, 4.5 mM KCl, 2 mM CaCl2, 1 mM MgCl2, 5 mM glucose, 10 mM Hepes, pH adjusted to 7.4 with NaOH). When indicated, the external solution contained Treprostinil (10 μM) or forskolin (5 μM), switching between solutions was achieved by electronically controlled pressure valves.
I3B-1 cells were grown on dishes (Nunc, 3.5 cm diameter) covered with fibronectin (10 μg/mL) rat collagen 1 (30 μg/mL) and BSA 10 μg/mL) in LHC-8 medium (Gibco) containing 5% fetal calf serum (FCS). Cells were transiently transfected with a plasmid driving the expression of human GFP-tagged wild type CFTR by using Lipofectamine Plus® (Invitrogen) according to the instructions of the manufacturer.
Representative current amplitudes recorded in the whole cell patch clamp configuration at +60 mV. A transiently transfected I3B-1 cell expressing GFP-tagged wild type CFTR was selected under fluorescent light and clamped to a holding potential at −40 mV. Depolarization was induced by a voltage step to +60 mV for 50 ms and the current amplitude was recorded. Wash-in of Treprostinil (10 μM final concentration, TP) was initiated at the time point 50 s and terminated at 125 s. Forskolin was washed in at 275 s and was removed at 375 s.

Structure (SMILES) | accumulation of cAMP (IB3-1 cells) | EC50 (IB3-1 cells; Homo sapiens, IB3-1 cells, [3H]adenine labelling, FIG. 1, read-out: Half-maximum stimulation of cAMP accumulation) [nM] | activation of the current induced by a depolarization from −40 mV holding potential to +60 mV ([1]; 10 μM Treprostinil, IB3-1 cell expressing CFTR-wt, FIG. 2) | time for current to decay to basal after washout ([1]; 10 μM Treprostinil, whole cell patch clamp at +60 mV) [s] | delay of response (maximum effect after wash-in, hysteresis in turn-off) ([1]; Treprostinil 10 μM or forskolin 5 μM, whole cell patch clamp)
O=C1CN2Cc3c(ccc(Cl)c3Cl)N=C2N1 [Anagrelide] | did not induce any accumulation cAMP |  |  |  | 
CCCCC[C@H](O)CC[C@@H]1[C@H]2Cc3cccc(OCC(=O)[O-])c3C[C@H]2C[C@H]1O.[Na+] [Treprostinil, (1R,2R,3aS,9aS)-[[2,3,3a,4,9,9a-hexahydro-2-hydroxy-1-[(3S)-3-hydroxyoctyl]-1H-benz[f]inden-5-yl]oxy]acetic acid monosodium salt] | concentration-dependent accumulation of cAMP | 300 to 1000 | robust activation of the current | ~100 | only observed several s after wash-in
